Results as given in patent US20240246963A1, “BIFUNCTIONAL COMPOUNDS AND PHARMACEUTICAL USES THEREOF” (RISEN (SUZHOU) PHARMA TECH CO., LTD., priority 2022, published 2024).

Assays:
RAS G12D protein = biological target: T1, RAS G12D protein (Homo sapiens, UniProt P01116, G12D); test: Protein degradation study (western blot) in Aspc-1 cells; type: cell-based; details: for percent protein degradation at 0.01 µM: 0.010 μM compound; for percent protein degradation at 0.1 µM: 0.1 μM compound; for Dmax: ASPC1, G12D in Aspc-1 cells; for DC50: half-maximum degradation concentration on G12D in Aspc-1 cells
T1 construct: host or cells: Aspc-1 (AsPC-1) cells
Procedure: Aspc-1 (Cobioer, CBP60546) cells in exponential growth phase were inoculated on a 6-well cell culture plate (Corning, 3516) at density of 1E6/well; and cells in the plate were cultured in a 37° C. incubator containing 5%-carbon dioxide. The next day, test compounds were dissolved in DMSO (Sigma, RNBF5902) for the preparation of a 10-mM concentration stock solution. The stock solution was diluted with complete medium (RPMI-1640 supplemented with 10% fetal bovine serum, 1% penicillin-streptomycin), yielding working solutions of various concentrations. The plate, after the addition of compounds, was placed in a 5% carbon dioxide incubator, and incubated at 37° C. for 24 hours (final DMSO concentration was 0.1%). The plate was then removed from the incubator, and the cells were washed twice with precooled PBS (Gibco, 14190250), followed by addition of 80 μL RIPA (CST, 9806S) lysis buffer (containing protease inhibitor (Invitrogen™, AM2696)) to each well. The adherent cells were scraped off with a cell scraper, and the cell lysate was transferred to a 1.5 mL centrifuge tube followed with a 30-minute incubation on ice. The lysate was then clarified with centrifugation at 12000 rpm for 10 min at 4° C. The supernatant was transferred into a new 1.5 mL centrifuge tube, and protein concentration was measured with BCA protein detection kit (Thermo Fisher, 23225). G12D protein level was assessed by western blot. A mixture of cell lysate (40 μL) and loading buffer (10 μL, 5×SDS (Beyotime, P0015L)) was denatured in a water-bath at 95° C. for 10 min. The denatured protein sample, at 30 μg/well, was loaded into a corresponding well of a 4-20% Bis-Tris gel (Kingsley, M00656). Protein samples were initially electrophoresed at 80 V for 30 minutes, followed by 120 V for 40 minutes, until the bromophenol blue strip ran to an appropriate position. After electrophoresis, iBlot2 (Life Technologies, IB21001) was used to transfer the separated samples onto PVDF film. The PVDF membrane was washed with double-distilled water and then blocked in TBST (Thermo Scientific, 28360) buffer containing 5% non-fat milk, for 2 hours. Blocked membrane was rinsed with tris-buffered saline tween-2 (Thermo Scientific, 28360, TBST) three times, 10 minutes each. Membrane was then incubated with 1:1000 diluted RAS Gi2D primary antibody (CST, cat #14429S) overnight at 4° C. Membrane was rinsed in a way described previously followed by 1 hour incubation of secondary antibody at room temperature. After washing the film for three times with TBST, ECL color developing solution was applied, and image was captured with Biorad Chemi Doc gel imager. The band gray value was quantified (Image Lab), and protein degradation level was calculated according to the following formulas:
Level of RAS G12D protein expression=(RAS G12D−compound/β-Actin)−compound/(RAS G12D−DMSO/β-Actin−DMSO)
Level of degradation (%)=(1−Rate of RAS G12D protein expression)×100
Symbols of −, +, ++, +++, ++++, +++++ indicate that the degradation level of Ras protein induced by test compounds was 10% or less, 10 to 30%, 30 to 60%, 60 to 70%, 70 to 75%, and greater than 75%, respectively. “NT” indicates not tested.
“NT” indicates not tested.

NCI-H358 cells (G12C) = test: Cell proliferation study (Cell Titer Glo, 72 hours), NCI-H358; type: cell-based; details: Homo sapiens
Procedure: (§1) Aspc-1(Cobioer, CBP60546), GP2D(Cobioer, CBP60683), Mia paca2 (Cobioer, CBP60136), NCI-H358 (Cobioer, CBP60544), H727 (Cobioer, CBP60182), MKN-1 (Cobioer, CBP60486), and PSN1 (Cobioer, CBP61215) cells in exponential growth phase were seeded into a 96-well plate (Greiner, 655090) at density of 3E3/well. Cells were cultured overnight at 37° C. with 5% CO2. On the next day, cells were treated with compound at various concentrations for 72 hours in 37° C., 5% CO2 incubator (final DMSO concentration was 0.1%). After treatment, 100 μL Cell Tier Glo (Promega, G7573) were added to every well on the cell plate and incubated at room temperature (RT) for 10 minutes. Cell growth status was measured with Cell Tier Glo (Promega, G7573) following manufacturer's directions. Inhibition level was calculated according to the following formula: […]
(§2) where the “Maximum Signal” are signal of wells containing DMSO without compound; the “Minimum Signal” are signal of wells recorded at Day 0 prior to commencement of the experiment; and the “Test compound signal” are signal of wells containing compound at established concentrations.
(§3) The inhibition curve was obtained with GraphPad 7.0 software using four-parameter equation.

[1] = Pharmacokinetics in male ICR mice; type: in vivo; details: mouse, plasma
GP2D cells (G12D) = test: Cell proliferation study (Cell Titer Glo, 72 hours), GP2D; type: cell-based
Procedure: as §1, §2, §3

MKN1 cells (WT) = test: Cell proliferation study (Cell Titer Glo, 72 hours), MKN1; type: cell-based; details: Homo sapiens, MKN-1
Procedure: as §1, §2, §3

PSN-1 cells (G12R) = test: Cell proliferation study (Cell Titer Glo, 72 hours), PSN-1; type: cell-based; details: Homo sapiens, PSN1
Procedure: as §1, §2, §3

GP2D cells = test: Tumor xenograft study (GP2D); type: in vivo, Balb/c nude mice (Nu/Nu)
Procedure: All studies were conducted in accordance with all applicable regulations and guidelines of the Institutional Animal Care and Use Committee (IACUC). Mice were maintained under pathogen-free conditions, and food and water were provided ad libitum. 6-8-week-old female, Balb/c nude mice (Nu/Nu) were injected subcutaneously with GP2D cells in 100 μL of PBS and Matrigel matrix in the right hind flank with 5×10^6 cells 50:50 cells: Matrigel. Mouse health was monitored daily, and caliper measurements began when tumors were palpable. Tumor volume measurements were determined utilizing the formula 0.5×L×W^2 in which L refers to length and W refers to width of each tumor. When tumors reached an average tumor volume of ˜200 mm^3, mice were randomized into treatment groups. The animals were divided into at least five mice per group. Mice were treated with test compound. Animals were monitored daily, and body weights and tumors were measured twice per week. “TGI” means tumor growth inhibition value.

NCI-H727 cells (G12V) = test: Cell proliferation study (Cell Titer Glo, 72 hours), NCI-H727; type: cell-based; details: Homo sapiens
Procedure: as §1, §2, §3

Mia paca2 cells (G12C) = test: Cell proliferation study (Cell Titer Glo, 72 hours), Mia paca2; type: cell-based; details: Homo sapiens, MIA PaCa-2
Procedure: as §1, §2, §3

AsPc-1 cells (G12D) = test: Cell proliferation study (Cell Titer Glo, 72 hours), AsPc-1; type: cell-based; details: Homo sapiens, ASPC1
Procedure: as §1, §2, §3

[2] = ASPC1, 24 h, Aspc-1 cells, 24 hours, read-out: Rate of protein degradation (%)

T1 sequence (P01116 1-188 isoform P01116-2 G12D): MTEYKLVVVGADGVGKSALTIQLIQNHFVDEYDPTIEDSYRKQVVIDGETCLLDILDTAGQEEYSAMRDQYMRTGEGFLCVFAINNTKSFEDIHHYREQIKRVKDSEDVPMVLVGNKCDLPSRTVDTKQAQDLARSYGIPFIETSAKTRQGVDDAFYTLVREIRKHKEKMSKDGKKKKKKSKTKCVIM

percent protein degradation at 0.01 µM (RAS G12D protein; [2]) [%]	percent protein degradation at 0.1 µM (RAS G12D protein; [2]) [%]	Dmax (RAS G12D protein) [%]	DC50 (RAS G12D protein) [nM]	IC50 (NCI-H358 cells (G12C)) [nM]	AUC(0-t) ([1]; IV (3 mg/kg)) [ng·h/mL]	half-life ([1]; IV (3 mg/kg)) [h]	AUC(0-t) ([1]; PO (10 mg/kg)) [ng·h/mL]	half-life ([1]; PO (10 mg/kg)) [h]	IC50 (MKN1 cells (WT)) [nM]	IC50 (NCI-H727 cells (G12V)) [nM]	IC50 (Mia paca2 cells (G12C)) [nM]	IC50 (AsPc-1 cells (G12D)) [nM]	percent protein degradation at 0.005 µM (RAS G12D protein; ASPC1, 24 h, 0.005 μM compound, Aspc-1 cells, 24 hours, read-out: Rate of protein degradation (%)) [%]	Structure (SMILES)	IC50 (GP2D cells (G12D)) [nM]	IC50 (PSN-1 cells (G12R)) [nM]	TGI (%) (GP2D cells; IP, 10 mg/kg, q3d, 21 days)	TGI (%) (GP2D cells; PO, 30 mg/kg, bid, 14 days)
> 75	> 75	78	1 to 10	17.6	1330	14.3	103	6.52	400	2.45	3.38	15.6		CCc1c(F)ccc2cc(O)cc(-c3ncc4c(N5CCC[C@@](C)(O)C5)nc(OCC5(CN6CCC7(CC6)CC(N6CCC(c8ccc9c(C%10CCC(=O)NC%10=O)nn(C)c9c8)CC6)C7)CC5)nc4c3F)c12 (stereo partly shown) [Compound 86]	0.158	459	75.8	
70 to 75	70 to 75		1 to 10	23.9					409	16.4	9.51	109		CCc1c(F)ccc2cc(O)cc(-c3ncc4c(N5CCC[C@@](C)(O)C5)nc(OCC5(CN6CCC(CN7CCC(c8ccc9c(C%10CCC(=O)NC%10=O)nn(C)c9c8)CC7)CC6)CC5)nc4c3F)c12 (stereo partly shown) [Compound 101]	0.214	463		
		81	1 to 10	17.1						3.61		7.83	> 75	CCc1c(F)ccc2cc(O)cc(-c3ncc4c(N5CCC[C@]6(CCO6)C5)nc(OCC5(CN6CCC7(CC6)CC(N6CCC(c8cc9c(cc8F)c(N8CCC(=O)NC8=O)nn9C)CC6)C7)CC5)nc4c3F)c12 [Compound 202]	0.06			75.8
